We go through 41 molecules from PubChem BioAssay AID463178 (University of Pittsburgh Molecular Library Screening Center, 2010).

In this assay the test system is Jurkat FADD-/- TNF-alpha necroptosis, CellTiter-Glo ATP, 24 h. Briefly: rescue of FADD-deficient Jurkat cells, IC50 – duplicate IC50, dose response (AID 463178).

pIC50: −log10 of the molar value. The source made the active and inactive calls.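 Rule for the calls: active = IC50 below a set limit in both duplicate runs and mean IC50 below a set limit; inconclusive = IC50 above a set limit in only one run; inactive = IC50 above a set limit in both runs and mean.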

The term pIC50 denotes −log10 of the IC50, conventionally taken in molar units. As for `Cc1nn(Cc2ccccc2)c(N)c1C#N`, the pIC50 is 5.03.
Usually IC50 stands for the concentration that inhibits the measured activity by half. With `CC(=O)Nc1ccc(/C=N/Nc2nc3ccccc3s2)cc1`, the IC50 is > 20 µM (inactive).
With `Fc1ccc(NC(=S)N2N=CCC2c2ccccc2)cc1` (stereo unspecified), the negative logarithm of the IC50 (pIC50) was 5.47.
Still for that read-out and setting: for `Cc1csc(SCC(=O)NC(=O)NC2CCCC2)n1` the value was 4.91; for `COc1ccc(C2CN=NC2C(=O)c2ccccc2)cc1` (stereo unspecified), 4.78.
Same read-out and setting: the result for `Cc1ccc2[nH]c3c(c2c1)CCc1cn[nH]c1-3` reads 5.94.
With `Cc1ccc(C(=O)NC(C#N)=C(Cl)Cl)cc1`, the IC50 was > 20 µM (inactive).
The same measure, in the same setting: for `Fc1ccc(C2=NNC(=NCc3ccccc3)SC2)cc1F` the value was > 20 µM (inactive).
Consider `S=C(Nc1ccccc1)N1N=CCC1c1ccccc1` (stereo unspecified), for which the pIC50 was 5.12.
Consider `O=C1NC(=Nc2ccccc2)SC1Cc1cccc(Cl)c1Cl` (stereo unspecified), for which the IC50 is > 20 µM (inactive).
The same measure, in the same setting: for `O=C(Nc1nccs1)c1ccc(S(=O)(=O)N2CCCCC2)cc1` the value was > 20 µM (inactive).
Consider `CC(=O)N(CC1CCCO1)c1nnc(-c2ccccn2)s1` (stereo unspecified), for which the pIC50 was 5.01.
`O=C(Nc1ccc(Cl)cn1)C1COc2ccccc2O1` (stereo unspecified): the IC50 was > 20 µM (inactive).
Same read-out and setting: for `COC(C(=O)Nc1ccc(S(=O)(=O)N2CCCCC2)cc1)c1ccccc1` (stereo unspecified) the value was > 20 µM (inactive).
Same read-out and setting: the result for `Cc1cnc(NC(=O)C2COc3ccccc3O2)s1` (stereo unspecified) reads > 20 µM (inactive).
On to `CCC(C)c1ccc(O)c(NC(=O)c2cncc(Br)c2)c1` (stereo unspecified), for which the IC50 was > 20 µM (inactive).
On to `COc1ccc(-n2c(C)nc3sc4c(c3c2=O)CCC4)cc1`, for which the pIC50 was 5.38.
Same read-out and setting: for `O=C1NC(Cc2c[nH]c3ccccc23)C(=O)N1CCOc1ccc(F)cc1` (stereo unspecified) the value was 5.00.
Regarding `O=C(Cn1cnc2ccc(Br)cc2c1=O)c1cccs1`, the IC50 was > 20 µM (inactive).
As to `Clc1cccc(Cl)c1Cn1ccc(C2CC2)n1`, the pIC50 was 5.32.
Still for that read-out and setting: for `Cc1nnsc1C(=O)NCc1c(F)cccc1Cl` the value was 5.12; for `Cc1ccc(SCC(=O)N2N=CCC2c2ccccc2)cc1` (stereo unspecified), 4.93.
Take `Cc1ccc(NC(=O)CSCc2ccc(F)cc2)cc1`: the IC50 is > 20 µM (inactive).
The same measure, in the same setting: the result for `Cc1ccc(C2CC(=O)NC(SCC(=O)Nc3nccs3)=C2C#N)cc1` (stereo unspecified) reads > 20 µM (inactive).
On the same count and under the same terms, the result for `Cc1csc(Nc2ccc(Cl)cc2)[n+]1-c1ccc(Cl)cc1` reads > 20 µM (inactive).
With `O=C1c2ccsc2SCCN1Cc1ccccc1`, the negative logarithm of the IC50 (pIC50) is 5.22.
In the case of `O=S(=O)(c1cccc2cccnc12)N1CCN(c2ccc(F)cc2)CC1`, the IC50 is > 20 µM (inactive).
With `CN=C(Cc1ccccc1)C1=C(O)CC(C)(C)CC1=O`, the pIC50 was 5.32.
Still for that read-out and setting: the result for `c1csc(Cc2nc3ccccc3[nH]2)c1` reads 5.05.
As for `COc1cc(/C=N/Nc2nc3ccccc3[nH]2)cc(Br)c1OCC(=O)N(C)C`, the IC50 was > 20 µM (inactive).
The same measure, in the same setting: for `O=C(Cn1cnc2ccc(Cl)cc2c1=O)c1cccs1` the value was > 20 µM (inactive).
Turning to `Clc1ccc2[nH]c3c(c2c1)CCc1cn[nH]c1-3`, the pIC50 is 5.28.
Consider `COc1ccc(-n2c(C)nc3sc4c(c3c2=O)CCCC4)cc1`, for which the pIC50 was 4.86.
For the molecule `CCn1c([N+](=O)[O-])nc2c1c(=O)[nH]c(=O)n2C`, the IC50 is > 20 µM (inactive).
Turning to `CC(=O)Nc1ccn(Cc2c(F)cccc2Cl)n1`, the pIC50 was 5.45.
Take `O=C(Nc1cccc2ccccc12)N1N=CCC1c1ccccc1` (stereo unspecified): the IC50 is > 20 µM (inactive).
The same measure, in the same setting: for `N#CCSc1nc2sc3c(c2c(=O)n1C1CCCCC1)CCCC3` the value was > 20 µM (inactive).
Consider `O=[N+]([O-])c1ncn(Cc2ccccc2Cl)n1`, for which the pIC50 was 5.60.
With `O=C(c1ccc([N+](=O)[O-])cc1)N1CCSC1c1ccccc1Cl` (stereo unspecified), the IC50 was > 20 µM (inactive).
Take `CC(Nc1nc(-c2ccc3c(c2)NC(=O)CO3)cs1)c1ccccc1` (stereo unspecified): the IC50 is > 20 µM (inactive).
Same read-out and setting: the result for `Cc1ccc(Oc2ccccc2/C=C2\SC(=O)N(C)C2=O)cc1` reads > 20 µM (inactive).
